Measurements published in publication PMC12150326 (The Journal of Organic Chemistry, 2025).
“And” between values parts separate entries of the source, which are not always exact repeats. Equal entries are not always repeated. Where two headings read alike, the source gives them in different places.

Key:
[1] = Experimental rotational energy barrier (thermal racemization, chiral HPLC); assay type: physicochemical; details: 135 °C in xylenes, Eyring equation
Description: (aR)-6 and (aS)-6 were readily separable from one another and racemic iso -6 through the use of a polysaccharide-based chiral column (Diacel IA column) fitted to an automated medium-pressure liquid chromatography unit (Biotage Isolera Prime). Racemization was observable after heating a solution of either enantiopure (aR)- or (aS)-6 at 135 °C in xylenes over a few hours, and the rate of enantiomerization was extrapolated using the Eyring equation (ΔG ^‡ = 31.2 ± 0.3 kcal/mol). (aR)- and (aS )-iso-6 were separable in an analogous fashion using a chiral IC polysaccharide column. […] Thus, we can project that the rotational energy barrier is […] 37 kcal/mol. However, a computationally determined rotational barrier for iso -6 was 33.5 kcal/mol, which is roughly 3 kcal/mol more than that calculated for 6. One potential explanation for this notable difference in configurational stability is the greater double bond character of the methyl-bearing C^4–C^5 carbon of iso -6 in comparison to the C^5–C^6 in 6, as this would both shorten and rigidify this steric-bearing bond (see Scheme A/B for details). […] Studies have previously described differences in rotational barriers of DAAC (2) and its analogous isomer that, while less dramatic, are consistent with this trend (ΔG ^‡ = 22.1 vs 23.4 kcal/mol). […]
IV. Experimental Profiling of Dihedral Angles
Rotational Energy Barrier Determination. A small spatula tip (~0.2 mg) of either (aR)-6 (aka, (aR)-MT-MTC) or (aS)-6 (aka, (aS)-MT-MTC) was diluted in 2 mL o-xylenes in a large vial containing a stir bar. The solution was heated to 135 °C open to air (temperature set to 135 °C, but fluxuated between 134 and 138 °C).
~100 µL aliquots were extracted from solution using a syringe fitted with a long disposable needle at various time intervals and diluted into automated sample vials containing 500 µL CH2Cl2 to rapidly cool. These samples were monitored on Agilent with an analytical HPLC IA column, using 0 – 40% iPrOH in Hexanes gradient over 30 minutes at a flow rate of 0.5 mL/min, and a pressure of roughly 5 bar). Samples eluted approximately 20 minutes into run, with (aR)-6 eluting first, followed by (aS)-6. Three separate runs were carried out, two of which monitored racemization of (aS)-6, and one of which monitored racemization of (aR)- […]
Integration of the HPLC traces were used to determine enantiomeric excess by calculating the difference between the two enantiomers and dividing that by the sum of the two enantiomers, and then multiplying that […]
provided a slope (corresponding to kracemization), and dividing this number […] providing kenantiomerization (or kent in equation below), with units inverse seconds. A summary of data follows (Table S5), and representative chromatograms illustrated in section VI.

HL-60(TB) = tested on: HL-60(TB); design: method as in NCI-60 database; details: HL-60(TB) ref NCI-60 database, cited from earlier work
HCC-2998 = tested on: HCC-2998; design: method as in NCI-60 database; details: HCC-2998 ref NCI-60 database, cited from earlier work
HCT-116 = tested on: HCT-116; design: method as in NCI-60 database; details: HCT-116 ref NCI-60 database, cited from earlier work
SNB-75 = tested on: SNB-75; design: method as in NCI-60 database; details: SNB-75 ref NCI-60 database, cited from earlier work
M14 = tested on: M14; design: method as in NCI-60 database; details: M14 ref NCI-60 database, cited from earlier work
SK-MEL-28 = tested on: SK-MEL-28; design: method as in NCI-60 database; details: SK-MEL-28 ref NCI-60 database, cited from earlier work
OVCAR-4 = tested on: OVCAR-4; design: method as in NCI-60 database; details: OVCAR-4 ref NCI-60 database, cited from earlier work
OVCAR-5 = tested on: OVCAR-5; design: method as in NCI-60 database; details: OVCAR-5 ref NCI-60 database, cited from earlier work
CAKI-1 = tested on: CAKI-1; design: method as in NCI-60 database; details: CAKI-1 ref NCI-60 database, cited from earlier work
MCF7 = tested on: MCF7; design: method as in NCI-60 database; details: MCF7 ref NCI-60 database, cited from earlier work
MDA-MB-231/ATCC = tested on: MDA-MB-231/ATCC; design: method as in NCI-60 database; details: MDA-MB-231/ATCC ref NCI-60 database, cited from earlier work
SNB-78 = tested on: SNB-78; design: method as in NCI-60 database; details: SNB-78 ref NCI-60 database, cited from earlier work

## COc1cc(C)c(-c2ccc(OC)c(=O)cc2C)c(OC)c1OC (single isomer, unassigned) [(aR)-6]
[1]
  ΔG‡ of enantiomerization, experimental: 31.2 ± 0.3 kcal/mol

## COc1cc2c(c(OC)c1OC)-c1ccc(OC)c(=O)cc1[C@@H](NC(C)=O)CC2 [Colchicine, (−)-Colchicine]
HL-60(TB)
  GI50: 10 nM
  Log10GI50: -7.89 Molar
  Log10LC50: > -4.00 Molar
HL-60(TB); listed as 757/1
  Log10GI50: -7.58 Molar
HL-60(TB); listed as 757/21
  Log10GI50: < -8.00 Molar and -7.89 Molar
HCC-2998
  GI50: 30 nM
  Log10GI50: -7.51 Molar
  Log10LC50: > -4.00 Molar
HCC-2998; listed as 757/1
  Log10GI50: -7.48 Molar
HCC-2998; listed as 757/9
  Log10GI50: -7.78 Molar
  Log10TGI: -7.59 Molar and -7.33 Molar
HCT-116
  GI50: 30 nM
  Log10GI50: -7.49 Molar
  Log10LC50: > -4.00 Molar
HCT-116; listed as 757/1
  Log10GI50: -7.41 Molar
  Log10TGI: > -4.00 Molar and -4.23 Molar
HCT-116; listed as 757/9
  Log10GI50: -7.79 Molar
SNB-75
  GI50: 910 nM
  Log10GI50: -6.04 Molar
  Log10LC50: > -4.00 Molar
SNB-75; listed as 757/1
  Log10GI50: < -8.00 Molar
  Log10TGI: -5.53 Molar
SNB-75; listed as 757/9
  Log10TGI: < -8.00 Molar
SNB-75; listed as 757/21
  Log10TGI: > -4.00 Molar
M14
  GI50: 55 nM
  Log10GI50: -7.26 Molar
  Log10LC50: > -4.00 Molar
M14; listed as 757/9
  Log10GI50: -7.68 Molar
  Log10TGI: -6.43 Molar
SK-MEL-28; listed as 757/1
  Log10GI50: -7.02 Molar
SK-MEL-28; listed as 757/9
  Log10LC50: -4.44 Molar
  Log10TGI: -4.95 Molar
SK-MEL-28; listed as 757/21
  Log10LC50: > -4.00 Molar
  Log10TGI: > -4.00 Molar
OVCAR-4
  GI50: 93300 nM
  Log10GI50: -4.03 Molar
  Log10LC50: > -4.00 Molar
  Log10TGI: > -4.00 Molar
OVCAR-4; listed as 757/1
  Log10GI50: -4.45 Molar
OVCAR-5
  GI50: 76 nM
  Log10GI50: -7.12 Molar
  Log10LC50: > -4.00 Molar
OVCAR-5; listed as 757/1
  Log10GI50: -4.48 Molar
CAKI-1
  Log10LC50: > -4.00 Molar
CAKI-1; listed as 757/1
  Log10GI50: < -8.00 Molar
  Log10TGI: > -4.00 Molar
CAKI-1; listed as 757/9
  Log10GI50: -6.57 Molar
  Log10TGI: -6.69 Molar
MCF7
  GI50: 11 nM
  Log10GI50: -7.94 Molar
  Log10LC50: > -4.00 Molar
MCF7; listed as 757/9
  Log10GI50: < -8.00 Molar
  Log10TGI: -7.92 Molar
MCF7; listed as 757/21
  Log10GI50: -7.89 Molar
  Log10TGI: > -4.00 Molar
MDA-MB-231/ATCC
  GI50: 7080 nM
  Log10GI50: -5.15 Molar
  Log10LC50: > -4.00 Molar
  Log10TGI: > -4.00 Molar
MDA-MB-231/ATCC; listed as 757/9
  Log10GI50: < -8.00 Molar and -7.78 Molar
MDA-MB-231/ATCC; listed as 757/21
  Log10GI50: -5.15 Molar
SNB-78
  Log10LC50: > -4.00 Molar
  Log10TGI: > -4.00 Molar
SNB-78; listed as 757/21
  Log10GI50: -7.88 Molar and < -8.00 Molar
